Laboratory results published in patent US20250049753A1, “METHODS AND COMPOSITIONS FOR DELIVERING MYCOPHENOLIC ACID ACTIVE AGENTS TO NON-HUMAN MAMMALS” (Okava Pharmaceuticals, Inc., priority 2017, published 2025).
Several values for one entry are separate records, joined by “and”; a condition that tells them apart may be missing. Equal values may be shown once.

Experiment: Study 1: single-dose cross-over PK, oral vs intracolonic Na.MPA
Assay type: in vivo, male beagle dogs
Conditions: for dose-normalized AUClast MPA: fasted, average
Protocol: Two single dose cross-over studies were conducted using a canine model (male beagle dogs) to evaluate the potential of an enteric coated-extended release sodium mycophenolate formulation (“EC-ER-Na.MP”). In a first cross-over study, the pharmacokinetics of MPA and its metabolites (MPAG and AcMPAG) following oral dosing of 180 mg of EC-Na.MPA was compared with intracolonic (IC) administration of Na.MPA. In a second cross-over study, 270 mg of an EC-ER-Na.MPA formulation was administered in the both fed and fasted states and pharmacokinetics were compared with oral administration of 10 mg/kg MMF in the fasted state. Both studies were conducted by Absorption Systems (San Diego, CA).
Study 1: For three days prior to IC dosing, dogs (n=5) were offered a soft diet consisting of canned wet food (Pedigree® Choice Cuts). Otherwise, the dogs were offered their standard diet (LabDiet 5006 laboratory canine diet). Prior to each dosing event, the dogs were fasted for 12 hours prior to dosing until 4 hours post-dose, when food was returned. Animals had free access to water throughout the study. Prior to IC dosing, each dog was given a non-stimulant enema approximately 1 hour prior to dosing to remove feces from the colon. Prior to PO dosing, each dog (n=5) was pre-treated with an intramuscular dose of pentagastrin (6 μg/kg) approximately 30 minutes prior to dosing. Capsules were administered by placement in the back of the throat followed by a 10 mL flush with water.
Each dog received a total dose of 180 mg of MPA for each dose. For IC dosing, MPA was delivered as a solution via an endoscope, and for PO dosing each dog received a single Myfortic® 180 mg enteric coated capsule. Following administration, blood samples were collected up to 24 hours post-dose. Plasma concentrations of MPA, MPAG, and AcMPAG were determined with a qualified LC-MS/MS method, and pharmacokinetic parameters were determined with WinNonlin v.6.4 software.

- systemic exposure to MPA following IC and PO dosing (based on average values): similar
SMILES: COc1c(C)c2c(c(O)c1C/C=C(\C)CCC(=O)O)C(=O)OC2 [MPA, Mycophenolic acid]
- dose-normalized AUClast MPA (IC 180 mg/dog): 1817 ± 925 kg·ng·h/mL/mg and 1817 kg·ng·h/mL/mg
- dose-normalized AUClast MPA (PO 180 mg/dog): 2234 ± 799 kg·ng·h/mL/mg and 2234 kg·ng·h/mL/mg
- rate of MPA absorption, IC in comparison to PO dose (dog, in vivo, po): more rapidly absorbed following IC dosing
